{
  "source": "paper PMC10202811",
  "about": "(Nature Medicine, 2023)",
  "assay": "Plasma pharmacokinetics of lorlatinib at steady state (LC-MS/MS, non-compartmental analysis)",
  "format": "in vivo, human",
  "settings": "for Lambda_z: in h-1 (unit assumed); for Tlag: unit assumed; for Cmax: read-out: Cmax; for AUC: read-out: AUC_TAU",
  "description": "Lorlatinib was isolated from human plasma by a liquid-iquid extraction procedure. […] A linear-log trapezoidal method was used [NT] A best-fit method was used to estimate terminal elimination and to extrapolate any plasma concentration versus time profiles to compute [NT].",
  "key": {"[1]": {"settings": "Cycle 1 Day 15, Cohort A1, 115 mg/m2 per dose, individual patients"}, "[2]": {"settings": "Cycle 1 Day 15, Cohort A1, 115 mg/m2 per dose, individual patients, in h (unit assumed)"}, "[3]": {"settings": "Cycle 1 Day 15, Cohort A1, 115 mg/m2 per dose, individual patients, in ng/mL"}, "[4]": {"settings": "Cycle 1 Day 15, Cohort A2, 100 mg per dose, individual patients"}, "[5]": {"settings": "Cycle 1 Day 15, Cohort A2, 150 mg per dose, individual patients"}, "[6]": {"settings": "Cycle 1 Day 15, Cohort A2, 150 mg per dose, individual patients, in h (unit assumed)"}, "[7]": {"settings": "Cycle 1 Day 15, patient N0773, Cohort B2, 115 mg/m2 per dose, Dose 75"}, "[8]": {"settings": "Cycle 1 Day 15, patient N0773, Cohort B2, 115 mg/m2 per dose, Dose 75, in h (unit assumed)"}, "[9]": {"settings": "human, in vivo, 115 mg/m2, Cohort A1, 115 mg/m2 per dose, C1D15, Geometric Mean, N 6"}, "[10]": {"settings": "human, in vivo, 115 mg/m2, Cohort A1, 115 mg/m2 per dose, C1D15, Median, N 6"}, "[11]": {"settings": "human, in vivo, 115 mg/m2, Cohort B2, 115 mg/m2 per dose, C1D15, Geometric Mean, N 6"}, "[12]": {"settings": "human, in vivo, 115 mg/m2, Cohort B2, 115 mg/m2 per dose, C1D15, Median, N 6"}, "[13]": {"settings": "human, in vivo, 115 mg/m2, Cycle 1 Day 1, Cohort B2, 115 mg/m2 per dose"}},
  "note": "Where two headings read alike, the source gives them in different places.",
  "data": [
    {"smiles": "C[C@H]1Oc2cc(cnc2N)-c2c(nn(C)c2C#N)CN(C)C(=O)c2ccc(F)cc21", "note": "[Lorlatinib, (10R)-7-amino-12-fluoro-2,10,16-trimethyl-15-oxo-10,15,16,17-tetrahydro-2H-8,4-(metheno)pyrazolo[4,3-h][2,5,11]-benzoxadiazacyclotetradecine-3-carbonitrile]", "values": [
      {"measurement": "Swing", "setting": "[1]", "value": 8.184},
      {"measurement": "Swing_Tau", "setting": "[1]", "value": 8.184},
      {"measurement": "Tlast", "setting": "[1]", "value": 24, "unit": "h"},
      {"measurement": "Vz_F", "setting": "[1]", "value": 274.2},
      {"measurement": "HL_Lambda_z", "setting": "[2]", "value": 12},
      {"measurement": "Tmin", "setting": "[2]", "value": 0},
      {"measurement": "Lambda_z", "setting": "[1]", "value": 0.05778},
      {"measurement": "Cavg", "setting": "[3]", "value": 341.9},
      {"measurement": "Clast", "setting": "[3]", "value": 147},
      {"measurement": "Clast_pred", "setting": "[3]", "value": 144.8},
      {"measurement": "Cmin", "setting": "[3]", "value": 147},
      {"measurement": "Ctau", "setting": "[3]", "value": 147},
      {"measurement": "Tlag", "setting": "[1]", "value": 0, "unit": "h"},
      {"measurement": "AUC_TAU_%Extrap", "setting": "[4]", "value": 0, "unit": "%"},
      {"measurement": "Tlast", "setting": "[4]", "value": 24, "unit": "h"},
      {"measurement": "Tmax", "setting": "Cycle 1 Day 15, Cohort A2, 100 mg per dose, individual patients, in h (unit assumed)", "value": 2},
      {"measurement": "Tmax", "setting": "Cycle 1 Day 15, Cohort A2, 100 mg per dose, individual patients, listed as lorlatinib, in h (unit assumed)", "value": 2},
      {"measurement": "Tlag", "setting": "[4]", "value": 0, "unit": "h"},
      {"measurement": "AUC_TAU_%Extrap", "setting": "[5]", "value": 0, "unit": "%"},
      {"measurement": "Tlast", "setting": "[5]", "value": 24, "unit": "h"},
      {"measurement": "MRTINF_obs", "setting": "[6]", "value": 20.95},
      {"measurement": "MRTINF_pred", "setting": "[6]", "value": 20.85},
      {"measurement": "Tmax", "setting": "[6]", "value": 2},
      {"measurement": "Tmin", "setting": "[6]", "value": 0},
      {"measurement": "Clast_pred", "setting": "Cycle 1 Day 15, Cohort A2, 150 mg per dose, individual patients, in ng/mL", "value": 129.9},
      {"measurement": "AUCINF_pred", "setting": "Cycle 1 Day 15, Cohort A2, 150 mg per dose, individual patients, in ng·h/mL (unit assumed)", "value": 8874},
      {"measurement": "Tlag", "setting": "[5]", "value": 0, "unit": "h"},
      {"measurement": "AUMC_TAU", "setting": "[7]", "value": 28139.0694},
      {"measurement": "Accumulation_Index", "setting": "[7]", "value": 1.002},
      {"measurement": "CLss_F", "setting": "[7]", "value": 10.79},
      {"measurement": "Cmax_D", "setting": "[7]", "value": 23.73},
      {"measurement": "Fluctuation%", "setting": "[7]", "value": 464.7},
      {"measurement": "Fluctuation%_Tau", "setting": "[7]", "value": 613.5},
      {"measurement": "Swing", "setting": "[7]", "value": 3.101},
      {"measurement": "Swing_Tau", "setting": "[7]", "value": 559.2},
      {"measurement": "Tlast", "setting": "[7]", "value": 6, "unit": "h"},
      {"measurement": "Vz_F", "setting": "[7]", "value": 40.19},
      {"measurement": "HL_Lambda_z", "setting": "[8]", "value": 2.582},
      {"measurement": "Tmin", "setting": "[8]", "value": 6},
      {"measurement": "Lambda_z", "setting": "[7]", "value": 0.2684},
      {"measurement": "Cavg", "setting": "Cycle 1 Day 15, patient N0773, Cohort B2, 115 mg/m2 per dose, Dose 75, in ng/mL", "value": 289.6},
      {"measurement": "Tlag", "setting": "[7]", "value": 0, "unit": "h"},
      {"measurement": "Tmax", "setting": "human, in vivo, 60 mg/m2, Cohort A1, 60 mg/m2 per dose, C1D15, Geometric Mean, N 3, read-out: Tmax", "value": 1.59, "unit": "h"},
      {"measurement": "Cmax", "setting": "human, in vivo, 75 mg/m2, Cycle 1 Day 1, Cohort A1, 75 mg/m2 per dose, individual patients", "value": 467, "unit": "ng/mL"},
      {"measurement": "AUC", "setting": "[9]", "value": 8640, "unit": "ng·h/mL"},
      {"measurement": "Cmax", "setting": "[9]", "value": 1210, "unit": "ng/mL"},
      {"measurement": "Tmax", "setting": "human, in vivo, 115 mg/m2, Cohort A1, 115 mg/m2 per dose, C1D15, Geometric Mean, N 6, read-out: Tmax", "value": 1.59, "unit": "h"},
      {"measurement": "AUC", "setting": "[10]", "value": 8570, "unit": "ng·h/mL"},
      {"measurement": "Cmax", "setting": "[10]", "value": 1280, "unit": "ng/mL"},
      {"measurement": "Tmax", "setting": "human, in vivo, 115 mg/m2, Cohort A1, 115 mg/m2 per dose, C1D15, Median, N 6, read-out: Tmax", "value": 1.5, "unit": "h"},
      {"measurement": "AUC", "setting": "[11]", "value": 7950, "unit": "ng·h/mL"},
      {"measurement": "Cmax", "setting": "[11]", "value": 1460, "unit": "ng/mL"},
      {"measurement": "Tmax", "setting": "human, in vivo, 115 mg/m2, Cohort B2, 115 mg/m2 per dose, C1D15, Geometric Mean, N 6, read-out: Tmax", "value": 1.12, "unit": "h"},
      {"measurement": "AUC", "setting": "[12]", "value": 6940, "unit": "ng·h/mL"},
      {"measurement": "Cmax", "setting": "[12]", "value": 1560, "unit": "ng/mL"},
      {"measurement": "Tmax", "setting": "human, in vivo, 115 mg/m2, Cohort B2, 115 mg/m2 per dose, C1D15, Median, N 6, read-out: Tmax", "value": 1, "unit": "h"},
      {"measurement": "MRT last", "setting": "human, in vivo, 115 mg/m2, Cycle 1 Day 1, Cohort A1, 115 mg/m2 per dose", "value": 11.1, "unit": "h"},
      {"measurement": "Tmax", "setting": "human, in vivo, 115 mg/m2, Cycle 1 Day 1, Cohort A1, 115 mg/m2 per dose, read-out: Tmax", "value": 1, "unit": "h"},
      {"measurement": "AUC(0-t)", "setting": "[13]", "value": 17700, "unit": "ng·h/mL"},
      {"measurement": "MRT last", "setting": "[13]", "value": 8.5, "unit": "h"}
    ]}
  ]
}
